Data from patent publication US5905089A, “Use of sesquiterpene lactones for treatment of severe inflammatory disorders” (Board of Supervisors of Louisiana State University and …, priority 1998, dated 1999).
Entries after “also recorded” stand apart in the source; their conditions may differ.

Columns and labels:
COX-2 mRNA = experiment: Steady state levels of COX-2 mRNA in LPS-stimulated alveolar macrophages (RNase protection assay); type: cell-based, Rat (Sprague-Dawley); settings: 2h, FIG. 3B
Experimental: (§1) Rat (Sprague-Dawley) alveolar macrophages were collected by broncho-alveolar lavage as described by Lee et al., J. Biol. Chem., vol. 267, pp. 25934-25938 (1992). The murine macrophage cell line RAW 264.7 (ATCC no. TIB-71) was cultured in Dubecco's modified Eagle's medium (DMEM) containing 10% heat-inactivated fetal bovine serum (FBS, Intergen). For the cyclooxygenase activity assay, cells were seeded in 24 well plates, and after near-confluency, cells were treated with aspirin (250 μM) for 2.5h to inactivate endogenous cyclooxygenase. […] COX activity was determined by measuring prostaglandin E2 concentrations in cells incubated with arachidonic acid (30 μM) for 10 minutes as described in Lee et al. (1992).
(§2) Total cellular RNA was isolated by TRIzoL reagent (Gibco, BRL). The RNase protection assay was performed as described in Chanmugan et al. (1995).
(§3) In FIG. 3B, alveolar macrophages were incubated with LPS in the presence of various concentrations of parthenolide for 2h. Steady state levels of mRNA were determined by RNase protection assay. In FIG. 4, alveolar macrophages were incubated with LPS in presence of 1 μg/ml of parthenolide for specified time periods. The concentrations of mRNA were determined by RNase protection assay.

COX-2 [1] = experiment: COX activity of de novo synthesized COX-2 (PGE2) in LPS-stimulated, aspirin-pretreated alveolar macrophages; type: cell-based, Rat (Sprague-Dawley); settings: LPS 10 μg/ml, 16h; PGE2 from exogenous arachidonic acid; FIG. 2; read-out: IC50, inhibition of the expression of COX activity
Experimental: as §1
(§4) Recovered COX activity in cells pretreated with aspirin reflected de novo synthesized COX-2. Alveolar macrophages pretreated with aspirin were incubated with LPS (10 μg/ml) and various concentrations of parthenolide for 16h. The activity of de novo synthesized COX-2 was determined by measuring the levels of PGE2 produced from exogenous arachidonic acid. Activity of TNFα was determined by bioassay using L929 cells as described by Aggarwal et al., J. Biol. Chem., vol. 260, pp. 2345-2354 (1985). […] Values in FIG. 2 are the means of triplicate samples for TNFα and duplicate samples for PGE2.

TNFα mRNA = experiment: Steady state levels of TNFα mRNA in LPS-stimulated alveolar macrophages (RNase protection assay); type: cell-based, Rat (Sprague-Dawley); settings: FIG. 3B (2h) and FIG. 4 (parthenolide 1 μg/ml, time course)
Experimental: as §1, §2, §3

IL-1β mRNA = experiment: Steady state levels of IL-1β mRNA in LPS-stimulated alveolar macrophages (RNase protection assay); type: cell-based, Rat (Sprague-Dawley); settings: FIG. 3B (2h) and FIG. 4 (parthenolide 1 μg/ml, time course)
Experimental: as §1, §2, §3

MAPKs = experiment: Tyrosine phosphorylation / activation of MAPKs in RAW 264.7 cells; type: cell-based, murine; settings: 3h pretreatment (herbimycin A 0.5 μg/ml), LPS 1 μg/ml 30 min
Experimental: as §1
(§5) This detection technique was carried out essentially as described in Chanmugan et al. (1995) using 4G10 monoclonal antiphosphotyrosine antibody (UBI) and the ECL detection system (Amersham).
Parthenolide suppressed LPS-stimulated tyrosine phosphorylation of various proteins in RAW 264.7 cells as assessed by antiphosphotyrosine immunoblot, depicted in FIG. 5A. This inhibition was correlated with the suppressed expression of COX-2 and IL-1α. RAW 264.7 cells were pretreated with parthenolide in various concentrations or with herbimycin A (0.5 μg/ml) for 3h, and then stimulated with LPS (1 μg/ml) in the presence of the inhibitors for 30 min. […] Therefore, the extent of tyrosine phosphorylation of JNK-1 was assessed by the electrophoretic mobility shift of phosphorylated JNK-1 as shown in FIG. 5B. Parthenolide inhibited tyrosine phosphorylation of JNK-1. Another protein tyrosine kinase inhibitor, herbimycin A ([…]), inhibited tyrosine phosphorylation of the MAPK subfamily.
The mechanism by which parthenolide inhibits protein tyrosine phosphorylation is not currently known. It has been speculated that the tyrosine kinase inhibitor herbimycin A inactivates p60^v-src kinase by irreversibly binding to the sulphydryl (SH) groups of p60^v-src kinase. Y. Uehara et al., Biochem. Biophys. Res. Commun., vol. 163, pp. 803-809 (1989). The inactivation by herbimycin may occur through conjugation between highly polarized double bonds in the benzoquinone moiety of herbimycin A and the SH group of sulphydryl compounds. Without wishing to be bound by this theory, the α-methylenebutyrolactone in parthenolide may interact with biological nucleophiles such as sulphydryl groups. Indeed, pretreating cells with sulphydryl compounds abrogated the inhibitory effect of parthenolide on LPS-induced activation of MAPKs as shown in FIG. 6A. In FIG. 6, RAW 264.7 cells were pretreated with parthenolide (1 μg/ml) in the presence of DTT (dithiothreitol, 100 μM), 2-ME (2-mercaptoethanol, 50 μM), or Cys (L-cysteine, 150 μM), and were then stimulated with LPS (1 μg/ml). Cells were incubated for 30 min for antiphosphotyrosine immunoblot analysis (FIG. 6A) and 8h for COX-2 and IL-1α Western blot analyses (FIG. 6B). […] Whether parthenolide inhibits protein tyrosine phosphorylation by directly inhibiting PTKs or by inhibiting other target protein(s) that affect the activity of PTKs is not currently known.

ERK-2 = experiment: Tyrosine phosphorylation of ERK-2 in RAW 264.7 cells (antiphosphotyrosine immunoblot); type: cell-based, murine; settings: 3h pretreatment, LPS 1 μg/ml 30 min; FIG. 5A
Experimental: as §1, §5
Parthenolide suppressed LPS-stimulated tyrosine phosphorylation of various proteins in RAW 264.7 cells as assessed by antiphosphotyrosine immunoblot, depicted in FIG. 5A. This inhibition was correlated with the suppressed expression of COX-2 and IL-1α. […] Therefore, the extent of tyrosine phosphorylation of JNK-1 was assessed by the electrophoretic mobility shift of phosphorylated JNK-1 as shown in FIG. 5B. […]

COX-2 [2] = experiment: Inhibition of the expression of COX-2 in LPS-stimulated macrophages (Table 1); type: cell-based
Experimental: Rat (Sprague-Dawley) alveolar macrophages were collected by broncho-alveolar lavage as described by Lee et al., J. Biol. Chem., vol.
as §4, with “Alveolar” for “Recovered COX activity in cells pretreated with aspirin reflected de novo synthesized COX-2. Alveolar”, “vol.” for “vol. 260, pp. 2345-2354 (1985).”

Structure (SMILES): C=C1C(=O)O[C@H]2[C@H]1CC/C(C)=C/CC[C@@]1(C)O[C@@H]21 [Compound 1, Parthenolide]
- steady state levels of COX-2 mRNA (COX-2 mRNA): dose-dependent inhibition; also recorded: suppression
- IC50 (COX-2 [1]): ~800 nM
- steady state levels of mRNA for TNFα (TNFα mRNA): inhibited
- steady state levels of mRNA for IL-1β (IL-1β mRNA): inhibited
- tyrosine phosphorylation of the MAPK subfamily (MAPKs): most dramatic inhibition
- tyrosine phosphorylation of ERK-2 (ERK-2): inhibited by parthenolide in a dose-dependent manner
- IC50, inhibiting the expression of COX-2 (COX-2 [2]; IC50 determined at multiple dose levels): 0.2 µg/mL
- inhibitory activity (COX-2 expression), in words (COX-2 [2]; comparison among tested compounds): highest inhibitory activity
